{"source": "paper doi:10.1101/2024.08.19.608619", "about": "“Discovery of potent SARS-CoV-2 nsp3 macrodomain inhibitors uncovers lack of translation to cellular antiviral response” (bioRxiv, 2024)", "key": {"[1]": {"biological_target": "T1, SARS-CoV-2 nsp3-mac1 (Severe acute respiratory syndrome coronavirus 2, UniProt P0DTD1)", "experiment": "biochemical", "format": "biochemical", "settings": "SARS-CoV-2 nsp3 macrodomain TR-FRET single point"}, "[2]": {"biological_target": "T1, SARS-CoV-2 nsp3-mac1", "experiment": "biochemical", "parameters": "SARS-CoV-2 nsp3 macrodomain TR-FRET single point, per cent inhibition, n=2"}, "[3]": {"settings": "read-out: perc_inhibition_mean, batch_name=ASAP-0000409-001"}, "[4]": {"settings": "read-out: perc_inhibition_mean, batch_name=ASAP-0000337-001"}, "[5]": {"settings": "read-out: perc_inhibition_mean, batch_name=ASAP-0000327-001"}, "[6]": {"settings": "read-out: perc_inhibition_mean, batch_name=ASAP-0000261-001"}, "[7]": {"settings": "read-out: perc_inhibition_mean, batch_name=ASAP-0000280-001"}, "[8]": {"settings": "read-out: perc_inhibition_mean, batch_name=ASAP-0000381-001"}, "[9]": {"settings": "read-out: perc_inhibition_mean, batch_name=ASAP-0000478-001"}, "[10]": {"settings": "read-out: perc_inhibition_mean, batch_name=ASAP-0000255-001"}, "[11]": {"settings": "read-out: perc_inhibition_mean, batch_name=ASAP-0000061-002"}, "[12]": {"settings": "read-out: perc_inhibition_mean, batch_name=ASAP-0000383-001"}}, "note": "Where two headings read alike, the source gives them in different places."}
{"molecule": "O=C(CCN(Cc1cccc(Cl)c1)C(=O)c1ccc(O)cc1)N1CCNCC1", "note": "[ASAP-0000409]", "values": [{"measurement": "perc_inhibition_mean", "setting": "[1]; concentration 49.75 uM", "value": -0.343, "unit": "%"}, {"measurement": "perc_inhibition_mean", "setting": "[1]; concentration 99.5 uM", "value": -1.632, "unit": "%"}, {"measurement": "inhibition at 49.75 µM", "setting": "[2]; [3]", "value": -0.343, "unit": "%"}, {"measurement": "inhibition at 99.5 µM", "setting": "[2]; [3]", "value": -1.63, "unit": "%"}]}
{"molecule": "O=C(Cn1c(=O)[nH]c2ccccc21)Nc1cnc2[nH]ncc2c1", "note": "[ASAP-0000137]", "values": [{"measurement": "perc_inhibition_mean", "setting": "[1]; concentration 50.0 uM", "value": 1.776, "unit": "%"}, {"measurement": "inhibition at 50 µM", "setting": "[2]; read-out: perc_inhibition_mean, batch_name=ASAP-0000137-001", "value": 1.78, "unit": "%"}]}
{"molecule": "O=C(NCC1(O)CCOCC1)c1cnn2ccc(C3CCN(C(=O)c4ccccc4)CC3)cc12", "note": "[ASAP-0000337]", "values": [{"measurement": "perc_inhibition_mean", "setting": "[1]; concentration 49.75 uM, n=2", "value": -3.965, "unit": "%"}, {"measurement": "perc_inhibition_mean", "setting": "[1]; concentration 99.5 uM, n=2", "value": -1.103, "unit": "%"}, {"measurement": "inhibition at 49.75 µM", "setting": "[2]; [4]", "value": -3.96, "unit": "%"}, {"measurement": "inhibition at 99.5 µM", "setting": "[2]; [4]", "value": -1.1, "unit": "%"}]}
{"molecule": "Cc1nccc(C(=O)N2CCC(c3ccn4ncc(C(=O)N5CCCCC5)c4c3)CC2)n1", "note": "[ASAP-0000327]", "values": [{"measurement": "perc_inhibition_mean", "setting": "[1]; concentration 49.75 uM, n=2", "value": 16.537, "unit": "%"}, {"measurement": "perc_inhibition_mean", "setting": "[1]; concentration 99.5 uM, n=2", "value": 27.369, "unit": "%"}, {"measurement": "inhibition at 49.75 µM", "setting": "[2]; [5]", "value": 16.5, "unit": "%"}, {"measurement": "inhibition at 99.5 µM", "setting": "[2]; [5]", "value": 27.4, "unit": "%"}]}
{"molecule": "O=S(=O)(Nc1ncccn1)c1ccc2oc3ccccc3c2c1", "note": "[ASAP-0000097]", "values": [{"measurement": "perc_inhibition_mean", "setting": "[1]; concentration 50.0 uM", "value": -3.004, "unit": "%"}, {"measurement": "inhibition at 50 µM", "setting": "[2]; read-out: perc_inhibition_mean, batch_name=ASAP-0000097-001", "value": -3, "unit": "%"}]}
{"molecule": "O=C(NCc1nc2cccnc2[nH]1)c1cnc2nc[nH]c(=O)c2c1", "note": "[ASAP-0000261]", "values": [{"measurement": "perc_inhibition_mean", "setting": "[1]; concentration 50.0 uM, n=2", "value": -1.987, "unit": "%"}, {"measurement": "perc_inhibition_mean", "setting": "[1]; concentration 100.0 uM, n=2", "value": 7.034, "unit": "%"}, {"measurement": "inhibition at 50 µM", "setting": "[2]; [6]", "value": -1.99, "unit": "%"}, {"measurement": "inhibition at 100 µM", "setting": "[2]; [6]", "value": 7.03, "unit": "%"}]}
{"molecule": "O=C(c1ccccc1)N1CCC(c2ccn3ncc(C(=O)N4CCc5nc[nH]c5C4)c3c2)CC1", "note": "[ASAP-0000280]", "values": [{"measurement": "perc_inhibition_mean", "setting": "[1]; concentration 49.75 uM, n=2", "value": 11.216, "unit": "%"}, {"measurement": "perc_inhibition_mean", "setting": "[1]; concentration 99.5 uM, n=2", "value": 20.268, "unit": "%"}, {"measurement": "inhibition at 49.75 µM", "setting": "[2]; [7]", "value": 11.2, "unit": "%"}, {"measurement": "inhibition at 99.5 µM", "setting": "[2]; [7]", "value": 20.3, "unit": "%"}]}
{"molecule": "COCc1cc(CNc2cc3c(O)ncnc3cn2)no1", "note": "[ASAP-0000202]", "values": [{"measurement": "perc_inhibition_mean", "setting": "[1]; concentration 50.0 uM", "value": 3.308, "unit": "%"}, {"measurement": "inhibition at 50 µM", "setting": "[2]; read-out: perc_inhibition_mean, batch_name=ASAP-0000202-001", "value": 3.31, "unit": "%"}]}
{"molecule": "Cc1nn(C)c(C)c1[C@H]1COCCN1c1ncnc2[nH]ccc12", "note": "[ASAP-0000381]", "values": [{"measurement": "perc_inhibition_mean", "setting": "[1]; concentration 49.75 uM", "value": -0.137, "unit": "%"}, {"measurement": "perc_inhibition_mean", "setting": "[1]; concentration 99.5 uM", "value": -0.128, "unit": "%"}, {"measurement": "inhibition at 49.75 µM", "setting": "[2]; [8]", "value": -0.137, "unit": "%"}, {"measurement": "inhibition at 99.5 µM", "setting": "[2]; [8]", "value": -0.128, "unit": "%"}]}
{"molecule": "Cc1cc(NCc2ncccc2O)ncn1", "note": "[ASAP-0000124]", "values": [{"measurement": "perc_inhibition_mean", "setting": "[1]; concentration 50.0 uM", "value": -3.335, "unit": "%"}, {"measurement": "inhibition at 50 µM", "setting": "[2]; read-out: perc_inhibition_mean, batch_name=ASAP-0000124-001", "value": -3.33, "unit": "%"}]}
{"molecule": "COCc1nc(CNc2ncc3c(n2)COC3)cs1", "note": "[ASAP-0000098]", "values": [{"measurement": "perc_inhibition_mean", "setting": "[1]; concentration 50.0 uM", "value": -7.137, "unit": "%"}, {"measurement": "inhibition at 50 µM", "setting": "[2]; read-out: perc_inhibition_mean, batch_name=ASAP-0000098-001", "value": -7.14, "unit": "%"}]}
{"molecule": "CC(C)Cn1cc([C@H]2N(c3ncnc4[nH]ccc34)CC23CCOCC3)cn1", "note": "[ASAP-0000478]", "values": [{"measurement": "perc_inhibition_mean", "setting": "[1]; concentration 49.75 uM", "value": -0.591, "unit": "%"}, {"measurement": "perc_inhibition_mean", "setting": "[1]; concentration 99.5 uM", "value": -4.664, "unit": "%"}, {"measurement": "inhibition at 49.75 µM", "setting": "[2]; [9]", "value": -0.591, "unit": "%"}, {"measurement": "inhibition at 99.5 µM", "setting": "[2]; [9]", "value": -4.66, "unit": "%"}]}
{"molecule": "O=C(NCc1cccc(F)n1)c1cnc2nc[nH]c(=O)c2c1", "note": "[ASAP-0000255]", "values": [{"measurement": "perc_inhibition_mean", "setting": "[1]; concentration 100.0 uM", "value": -14.602, "unit": "%"}, {"measurement": "perc_inhibition_mean", "setting": "[1]; concentration 50.0 uM, n=2", "value": -14.823, "unit": "%"}, {"measurement": "inhibition at 50 µM", "setting": "[2]; [10]", "value": -14.8, "unit": "%"}, {"measurement": "inhibition at 100 µM", "setting": "[2]; [10]", "value": -14.6, "unit": "%"}]}
{"molecule": "O=S(=O)(NC[C@@H]1CCCCO1)c1cn2c(n1)CCCC2", "note": "[ASAP-0000105]", "values": [{"measurement": "perc_inhibition_mean", "setting": "[1]; concentration 50.0 uM", "value": -5.386, "unit": "%"}, {"measurement": "inhibition at 50 µM", "setting": "[2]; read-out: perc_inhibition_mean, batch_name=ASAP-0000105-001", "value": -5.39, "unit": "%"}]}
{"molecule": "Cc1cccc2oc(CCNc3ncnc4[nH]ccc34)nc12", "note": "[ASAP-0000038]", "values": [{"measurement": "perc_inhibition_mean", "setting": "[1]; concentration 50.0 uM", "value": -3.259, "unit": "%"}, {"measurement": "inhibition at 50 µM", "setting": "[2]; read-out: perc_inhibition_mean, batch_name=ASAP-0000038-001", "value": -3.26, "unit": "%"}]}
{"molecule": "FC(F)(F)c1nc(NC[C@H]2CCCO2)c2nc[nH]c2n1", "note": "[ASAP-0000088]", "values": [{"measurement": "perc_inhibition_mean", "setting": "[1]; concentration 50.0 uM", "value": 2.501, "unit": "%"}, {"measurement": "inhibition at 50 µM", "setting": "[2]; read-out: perc_inhibition_mean, batch_name=ASAP-0000088-001", "value": 2.5, "unit": "%"}]}
{"molecule": "O=C(Nc1cnc2[nH]ncc2c1)c1ccncc1Cl", "note": "[ASAP-0000061]", "values": [{"measurement": "perc_inhibition_mean", "setting": "[1]; concentration 50.0 uM", "value": -0.272, "unit": "%"}, {"measurement": "perc_inhibition_mean", "setting": "[1]; concentration 50.0 uM, n=2", "value": -2.752, "unit": "%"}, {"measurement": "perc_inhibition_mean", "setting": "[1]; concentration 100.0 uM, n=2", "value": 2.961, "unit": "%"}, {"measurement": "inhibition at 50 µM", "setting": "[2]; read-out: perc_inhibition_mean, batch_name=ASAP-0000061-001", "value": -0.272, "unit": "%"}, {"measurement": "inhibition at 50 µM", "setting": "[2]; [11]", "value": -2.75, "unit": "%"}, {"measurement": "inhibition at 100 µM", "setting": "[2]; [11]", "value": 2.96, "unit": "%"}]}
{"molecule": "c1coc(CNc2ncnc3[nH]cnc23)c1", "note": "[ASAP-0000198]", "values": [{"measurement": "perc_inhibition_mean", "setting": "[1]; concentration 50.0 uM", "value": 2.634, "unit": "%"}, {"measurement": "inhibition at 50 µM", "setting": "[2]; read-out: perc_inhibition_mean, batch_name=ASAP-0000198-001", "value": 2.63, "unit": "%"}]}
{"molecule": "O=C(c1c[nH]c(=O)cn1)N1CCC(c2ccn3ncc(C(=O)N4CCCCC4)c3c2)CC1", "note": "[ASAP-0000383]", "values": [{"measurement": "perc_inhibition_mean", "setting": "[1]; concentration 49.75 uM", "value": -49.044, "unit": "%"}, {"measurement": "perc_inhibition_mean", "setting": "[1]; concentration 99.5 uM", "value": 45.826, "unit": "%"}, {"measurement": "inhibition at 49.75 µM", "setting": "[2]; [12]", "value": -49, "unit": "%"}, {"measurement": "inhibition at 99.5 µM", "setting": "[2]; [12]", "value": 45.8, "unit": "%"}]}
